Values of other authors, collected in patent US20100029771A1, “TREATMENT OF ADDICTIVE DISORDERS” (priority 2008, published 2010).

What was measured:
[1] = alcoholic subjects; each drug given individually
[2] = clinical trials
[3] = limited to the first months of treatment

Compound | effect on craving [1] | effect on anxiety ([2]; alcoholic and non-alcoholic subjects) | side effect [2] | duration of benefits on alcohol craving and intake [3]
NCC(CC(=O)O)c1ccc(Cl)cc1 (stereo not shown) [baclofen, 4-amino-3-(4-chlorophenyl)butanoic acid] | reduce craving | reduce anxiety | somnolence being an overwhelming side effect | 
O=C1CC[C@@]2(O)[C@H]3Cc4ccc(O)c5c4[C@@]2(CCN3CC2CC2)[C@H]1O5 [naltrexone] |  |  |  | ≤ 3 months
